Measured values from patent publication US12144795B2, “Cannabidiol compositions having modified cannabinoid profiles” (priority 2018, dated 2024).

Experiment: Stability studies of CBD prepared via Protocol 3 (crude, pure, 2x recrystallized; 5° C., 25° C./60% RH, 40° C./75% RH)
Format: physicochemical

C=C(C)[C@@H]1CCC(C)=C[C@H]1c1c(O)cc(CCCCC)cc1O [Crude CBD]
Appearance (25° C./60% RH, 0 month): White
Assay by HPLC (25° C./60% RH, 0 month): 99.9%
Each unspecified impurity: RRT~1.540 (25° C./60% RH, 0 month): 0.06%
Each unspecified impurity: RRT~1.690 (25° C./60% RH, 0 month): 0.11%
Related substances by HPLC (low level): Δ9-Tetrahydrocannabinol (25° C./60% RH, 0 month): 26 ppm
Related substances by HPLC: 4-Monobromo-CBD (25° C./60% RH, 0 month): <0.03% (0.02%)
Related substances by HPLC: Olivetol (25° C./60% RH, 0 month): <0.03% (ND)
Related substances by HPLC: Sum of impurities, ≥0.05% (25° C./60% RH, 0 month): 0.17%
Related substances by HPLC: Δ9-Tetrahydrocannabinol (25° C./60% RH, 0 month): <0.02% (ND)
Appearance (25° C./60% RH, 1 month): Off-White
Assay by HPLC (25° C./60% RH, 1 month): 98.2%
Each unspecified impurity: RRT~1.927 (25° C./60% RH, 1 month): 0.07%
Each unspecified impurity: RRT~2.146 (25° C./60% RH, 1 month): 0.12%
Related substances by HPLC (low level): Δ8-Tetrahydrocannabinol (25° C./60% RH, 1 month): 6 ppm
Related substances by HPLC (low level): Δ9-Tetrahydrocannabinol (25° C./60% RH, 1 month): 29 ppm
Related substances by HPLC: 4-Monobromo-CBD (25° C./60% RH, 1 month): <0.03% (0.02)
Related substances by HPLC: Olivetol (25° C./60% RH, 1 month): <0.03% (ND)
Related substances by HPLC: Sum of impurities, ≥0.05% (25° C./60% RH, 1 month): 0.19%
Related substances by HPLC: Δ8-Tetrahydrocannabinol (25° C./60% RH, 1 month): <0.02% (ND)
Related substances by HPLC: Δ9-Tetrahydrocannabinol (25° C./60% RH, 1 month): <0.02% (ND)
Appearance (25° C./60% RH, 2 months): Off-White
Assay by HPLC (25° C./60% RH, 2 months): 99.5%
Each unspecified impurity: RRT~1.931 (25° C./60% RH, 2 months): 0.06%
Each unspecified impurity: RRT~2.151 (25° C./60% RH, 2 months): 0.09%
Related substances by HPLC (low level): Δ8-Tetrahydrocannabinol (25° C./60% RH, 2 months): 5 ppm
Related substances by HPLC (low level): Δ9-Tetrahydrocannabinol (25° C./60% RH, 2 months): 27 ppm
Related substances by HPLC: 4-Monobromo-CBD (25° C./60% RH, 2 months): <0.03% (0.02%)
Related substances by HPLC: Olivetol (25° C./60% RH, 2 months): <0.03% (0.02%)
Related substances by HPLC: Sum of impurities, ≥0.05% (25° C./60% RH, 2 months): 0.15%
Related substances by HPLC: Δ8-Tetrahydrocannabinol (25° C./60% RH, 2 months): <0.02% (ND)
Related substances by HPLC: Δ9-Tetrahydrocannabinol (25° C./60% RH, 2 months): <0.02% (ND)
Appearance (25° C./60% RH, 3 months): Off-white
Assay by HPLC (25° C./60% RH, 3 months): 98.1%
Each unspecified impurity: RRT~1.983 (25° C./60% RH, 3 months): 0.05%
Each unspecified impurity: RRT~2.260 (25° C./60% RH, 3 months): 0.10%
Related substances by HPLC (low level): Δ8-Tetrahydrocannabinol (25° C./60% RH, 3 months): 8 ppm
Related substances by HPLC (low level): Δ9-Tetrahydrocannabinol (25° C./60% RH, 3 months): 13 ppm
Related substances by HPLC: 4-Monobromo-CBD (25° C./60% RH, 3 months): <0.03% (0.02%)
Related substances by HPLC: Olivetol (25° C./60% RH, 3 months): <0.03% (ND)
Related substances by HPLC: Sum of impurities, ≥0.05% (25° C./60% RH, 3 months): 0.15%
Related substances by HPLC: Δ8-Tetrahydrocannabinol (25° C./60% RH, 3 months): <0.02% (ND)
Related substances by HPLC: Δ9-Tetrahydrocannabinol (25° C./60% RH, 3 months): <0.02% (ND)
Appearance (40° C./75% RH, 0 month): White
Assay by HPLC (40° C./75% RH, 0 month): 99.9%
Each unspecified impurity: RRT~1.540 (40° C./75% RH, 0 month): 0.06%
Each unspecified impurity: RRT~1.690 (40° C./75% RH, 0 month): 0.11%
Related substances by HPLC (low level): Δ9-Tetrahydrocannabinol (40° C./75% RH, 0 month): 26 ppm
Related substances by HPLC: 4-Monobromo-CBD (40° C./75% RH, 0 month): <0.03% (0.02%)
Related substances by HPLC: Olivetol (40° C./75% RH, 0 month): <0.03% (ND)
Related substances by HPLC: Sum of impurities, ≥0.05% (40° C./75% RH, 0 month): 0.17%
Related substances by HPLC: Δ9-Tetrahydrocannabinol (40° C./75% RH, 0 month): <0.02% (ND)
Appearance (40° C./75% RH, 1 month): Yellow Powder
Assay by HPLC (40° C./75% RH, 1 month): 98.7%
Each unspecified impurity: RRT~1.928 (40° C./75% RH, 1 month): 0.06%
Each unspecified impurity: RRT~2.150 (40° C./75% RH, 1 month): 0.11%
Related substances by HPLC (low level): Δ8-Tetrahydrocannabinol (40° C./75% RH, 1 month): 7 ppm
Related substances by HPLC (low level): Δ9-Tetrahydrocannabinol (40° C./75% RH, 1 month): 28 ppm
Related substances by HPLC: 4-Monobromo-CBD (40° C./75% RH, 1 month): <0.03% (0.02)
Related substances by HPLC: Olivetol (40° C./75% RH, 1 month): <0.03% (ND)
Related substances by HPLC: Sum of impurities, ≥0.05% (40° C./75% RH, 1 month): 0.17%
Related substances by HPLC: Δ8-Tetrahydrocannabinol (40° C./75% RH, 1 month): <0.02% (ND)
Related substances by HPLC: Δ9-Tetrahydrocannabinol (40° C./75% RH, 1 month): <0.02% (ND)
Appearance (40° C./75% RH, 2 months): Off-White
Assay by HPLC (40° C./75% RH, 2 months): 99.6%
Each unspecified impurity: RRT~1.931 (40° C./75% RH, 2 months): 0.06%
Each unspecified impurity: RRT~2.151 (40° C./75% RH, 2 months): 0.07%
Related substances by HPLC (low level): Δ8-Tetrahydrocannabinol (40° C./75% RH, 2 months): 4 ppm
Related substances by HPLC (low level): Δ9-Tetrahydrocannabinol (40° C./75% RH, 2 months): 27 ppm
Related substances by HPLC: 4-Monobromo-CBD (40° C./75% RH, 2 months): <0.03% (0.02)
Related substances by HPLC: Olivetol (40° C./75% RH, 2 months): <0.03% (ND)
Related substances by HPLC: Sum of impurities, ≥0.05% (40° C./75% RH, 2 months): 0.13%
Related substances by HPLC: Δ8-Tetrahydrocannabinol (40° C./75% RH, 2 months): <0.02% (ND)
Related substances by HPLC: Δ9-Tetrahydrocannabinol (40° C./75% RH, 2 months): <0.02% (ND)
Appearance (40° C./75% RH, 3 months): Off-white
Assay by HPLC (40° C./75% RH, 3 months): 99.0%
Each unspecified impurity: RRT~1.982 (40° C./75% RH, 3 months): 0.05%
Each unspecified impurity: RRT~2.258 (40° C./75% RH, 3 months): 0.09%
Related substances by HPLC (low level): Δ8-Tetrahydrocannabinol (40° C./75% RH, 3 months): 8 ppm
Related substances by HPLC (low level): Δ9-Tetrahydrocannabinol (40° C./75% RH, 3 months): 17 ppm
Related substances by HPLC: 4-Monobromo-CBD (40° C./75% RH, 3 months): <0.03% (0.02)
Related substances by HPLC: Olivetol (40° C./75% RH, 3 months): <0.03% (ND)
Related substances by HPLC: Sum of impurities, ≥0.05% (40° C./75% RH, 3 months): 0.14%
Related substances by HPLC: Δ8-Tetrahydrocannabinol (40° C./75% RH, 3 months): <0.02% (ND)
Related substances by HPLC: Δ9-Tetrahydrocannabinol (40° C./75% RH, 3 months): <0.02% (ND)
Appearance (40° C./75% RH, 5 months): Beige/off-
Assay by HPLC (40° C./75% RH, 5 months): 98.6%
Each unspecified impurity: Methadienol deg-1 (40° C./75% RH, 5 months): deg-1: 0.03%
Each unspecified impurity: RRT~0.956 (40° C./75% RH, 5 months): 0.04%
Each unspecified impurity: RRT~1.918 (40° C./75% RH, 5 months): 0.05%
Related substances by HPLC (low level): Δ8-Tetrahydrocannabinol (40° C./75% RH, 5 months): 36 ppm
Related substances by HPLC (low level): Δ9-Tetrahydrocannabinol (40° C./75% RH, 5 months): 24 ppm
Related substances by HPLC: 4-Monobromo-CBD (40° C./75% RH, 5 months): <0.03% (ND)
Related substances by HPLC: Olivetol (40° C./75% RH, 5 months): <0.03% (ND)
Related substances by HPLC: Sum of impurities, ≥0.05% (40° C./75% RH, 5 months): 0.05%
Related substances by HPLC: Δ8-Tetrahydrocannabinol (40° C./75% RH, 5 months): <0.02% (ND)
Related substances by HPLC: Δ9-Tetrahydrocannabinol (40° C./75% RH, 5 months): <0.02% (ND)
